Experimental data: US20100010060A1, “Isoindolin-1-One-, Isoindolin-3-One- and Isoindolin-1,3-Dione-Derivatives and Use Thereof” (Bayer Healthcare AG, priority 2006, published 2010)

Target: human factor Xa (FXa) (Homo sapiens, UniProt P00742)
Experiment: Determination of the factor Xa inhibition (chromogenic substrate)
Assay type: biochemical
Details: human FXa 0.5 nmol/l, 150 μmol/l Pefachrome FXa, 25° C., pH 8.3, extinction at 405 nm
Experimental: a.1) Determination of the Factor Xa Inhibition:
The enzymatic activity of human factor Xa (FXa) is measured using the conversion of a chromogenic substrate specific for FXa. Factor Xa cleaves p-nitroaniline from the chromogenic substrate. The determinations are carried out in microtitre plates as follows:
The test substances, in various concentrations, are dissolved in DMSO and incubated for 10 minutes at 25° C. with human FXa (0.5 nmol/l dissolved in 50 mmol/l of Tris buffer [C,C,C-tris(hydroxymethyl)aminomethane], 150 mmol/l of NaCl, 0.1% BSA [bovine serum albumin], pH=8.3). Pure DMSO is used as control. The chromogenic substrate (150 μmol/l of Pefachrome® FXa from Pentapharm) is then added. After an incubation time of 20 minutes at 25° C., the extinction at 405 nm is determined.

Chain of human factor Xa (FXa) (P00742 235-488 limits assumed): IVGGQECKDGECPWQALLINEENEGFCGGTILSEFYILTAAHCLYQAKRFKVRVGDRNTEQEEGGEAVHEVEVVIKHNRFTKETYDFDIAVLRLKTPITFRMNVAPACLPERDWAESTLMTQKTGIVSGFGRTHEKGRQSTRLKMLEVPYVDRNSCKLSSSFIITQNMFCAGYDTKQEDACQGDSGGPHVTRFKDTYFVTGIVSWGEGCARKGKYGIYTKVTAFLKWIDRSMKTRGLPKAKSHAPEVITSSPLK
Chain of human factor Xa (FXa) (P00742 41-179 partner limits assumed): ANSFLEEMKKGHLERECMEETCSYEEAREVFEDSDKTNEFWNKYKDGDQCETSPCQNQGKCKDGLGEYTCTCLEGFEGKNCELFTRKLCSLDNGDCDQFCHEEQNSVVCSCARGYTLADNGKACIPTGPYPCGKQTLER

IC50: 1.1 nM
SMILES: N=C1OCCN1c1cccc(CN2Cc3cccc(NC(=O)c4ccc(Cl)s4)c3C2=O)c1 [Example 5, 5-Chloro-N-{2-[3-(2-imino-1,3-oxazolidin-3-yl)benzyl]-3-oxo-2,3-dihydro-1H-isoindol-4-yl}-thiophene-2-carboxamide methanesulphonate]
